Assay results from ChEMBL document CHEMBL1151509, “Synthesis of active metabolites of indole pyrrolothiazole paf antagonists” (Bioorg Med Chem Lett, 1995).

Experiments:
Rattus norvegicus = assay: Inhibition of PAF induced cutaneous vascular permeability in rat by intravenous administration; type: functional
[1] = biological target: Platelet-activating factor receptor (Rattus norvegicus, UniProt P46002); assay: Inhibition of platelet activating factor(PAF) by binding to PAF receptor
Chain of Platelet-activating factor receptor (P46002 whole entry): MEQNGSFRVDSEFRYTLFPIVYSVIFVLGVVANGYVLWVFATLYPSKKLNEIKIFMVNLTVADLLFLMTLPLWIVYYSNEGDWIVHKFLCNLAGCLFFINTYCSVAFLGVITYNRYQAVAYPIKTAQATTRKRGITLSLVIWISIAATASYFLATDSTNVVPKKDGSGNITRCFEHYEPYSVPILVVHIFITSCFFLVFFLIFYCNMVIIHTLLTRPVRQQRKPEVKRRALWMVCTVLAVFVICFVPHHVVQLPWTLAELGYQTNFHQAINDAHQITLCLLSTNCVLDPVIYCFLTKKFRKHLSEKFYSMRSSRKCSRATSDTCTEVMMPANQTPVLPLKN

SMILES | ED50 (Rattus norvegicus; Rattus norvegicus, iv, read-out: ED50) [mg/kg] | ED50 (Rattus norvegicus) [mg/kg] | Ki [1] [nM]
CN(C)C(=O)n1cc(C(=O)c2ccn3c2CS[C@@H]3c2cccnc2)c2ccc(-c3ccc(F)cc3)cc21 | 0.006 |  | 
CN(C)C(=O)n1cc(C(=O)c2ccn3c2C[S+]([O-])[C@@H]3c2cccnc2)c2ccc(-c3ccc(F)cc3)cc21 (stereo in doubt; cis) |  | 0.025 | 8.5
CN(C)C(=O)n1cc(C(=O)c2ccn3c2C[S+]([O-])[C@@H]3c2cccnc2)c2ccc(-c3ccc(F)cc3)cc21 (stereo in doubt; trans) |  | 0.1 | 68
